Common to all, as to test: DTP human tumour cell line panel, 48 h
Experiment [1] has as its system UACC-62 melanoma.
In experiment [2] the test system is HCT-116 colon.
Experiment [3] concerns RPMI-8226 leukemia.
In experiment [4] the test system is SN12C renal.
Experiment [5] deals with NCI-H460 lung.
In experiment [6] the test system is HOP-62 NSCLC.
Experiment [7] concerns A498 renal.
Experiment [8] concerns DU-145 prostate.
In experiment [9] the test system is MCF7 breast.

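1) Cells in 96-well plates. 2) Compound, 48 h, 5 concentrations. 3) Linear interpolation between surrounding doses. 4) Unreached endpoint = highest concentration. GI50 = concentration required for 50% inhibition of growth. TGI is the concentration that stops growth completely.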 A value given as a limit tells only on which side of the number the result lay.

By TGI is commonly meant the concentration at which net growth stops. A low value points to greater sensitivity of the cells. Broadly, the GI50 is the concentration at which growth is held to half of that of the control.

As to `CC(=O)NNc1nc(C)c(C(=O)NNC(=O)C(=O)Nc2ccccc2C#N)s1`, the TGI in experiment [1], in experiment [2], in experiment [3], in experiment [4], in experiment [5] and in experiment [6] was over 100 µM in each case. The same compound returned a TGI in experiment [7] of over 100 µM.
`Cc1cccc(NC(=O)CC(=O)N2N=C(N(CCC#N)c3ccc(Cl)cc3)CC2c2ccccc2)c1` (centres undefined): the TGI in experiment [1], in experiment [2], in experiment [4], in experiment [5] and in [6] was over 100 µM each time.
As to `CNS(=O)(=O)NN(C)S(=O)(=O)c1ccc(F)cc1`, the TGI in experiment [1], in [2], in experiment [3], in [4], in experiment [5] and in [6] was over 100 µM in each case. For the same compound, in [7], the TGI was over 100 µM.
As to `O=Cc1cn(C(=O)c2ccccc2)c2ccccc12`, the TGI in experiment [1], in [2], in experiment [3], in experiment [5], in [6] and in experiment [7] was over 100 µM each time.
Regarding `O=C(CP(=O)(O)O)c1cccs1`, the TGI in experiment [1], in [2], in experiment [3], in experiment [4], in experiment [5] and in [6] was over 100 µM throughout. The same compound gave a concentration for total growth inhibition (TGI) in [7] of over 100 µM.
Take `CSC1CC2C(CC1(C)O)C2(C)C` (centres undefined): the TGI in experiment [1], in experiment [2], in experiment [3], in experiment [4], in experiment [5] and in [6] was over 100 µM throughout. Further, the TGI in experiment [7] was over 100 µM.
Regarding `C=CCC1([C@H](C)[C@@H](OC(C)=O)c2cc(OC)c(OC)c(OC)c2)C[C@@H](OC)CCC1=O` (some centres undefined), the TGI amounted to 34.9 µM in experiment [1]; 32.3 µM in experiment [2]; 50.3 µM in [3]; 37 µM in experiment [4]; 62.4 µM in experiment [5]; 85.3 µM in [6].
Take `Cc1ccc(-c2c(N)[n+]([O-])c3ccccc3[n+]2[O-])cc1`: the TGI is 20.1 µM in experiment [1]; over 100 µM in experiment [3]; 27.8 µM in experiment [4]; 47 µM in experiment [5]; 31 µM in [6].
On to `Cc1ccc(/C=C2\CN(C(=O)OC(C)(C)C)C/C(=C\c3ccc(C)cc3)C2=O)cc1`, for which the GI50 in [1] is 0.0788 µM; in [2] it was 0.058 µM; in [3], 0.329 µM; in experiment [4], 0.393 µM; in experiment [5], 0.124 µM; in [8], 0.158 µM. For the same compound, the GI50 in experiment [9] is 0.205 µM. The TGI in experiment [1] is over 100 µM; in [2], 13.7 µM; in experiment [4] it was over 100 µM; in experiment [5], 10.7 µM; in experiment [8], over 100 µM; in experiment [6], over 100 µM. In addition, the TGI in experiment [7] and in experiment [9] was over 100 µM each time.
For `O=C([O-])c1ccccc1Nc1ccccn1.O=C([O-])c1ccccc1Nc1ccccn1.[Ni+2]`, the GI50 in [1], in experiment [2], in [3], in [4], in [5] and in experiment [6] was over 100 µM throughout. Also, the GI50 in experiment [7] was over 100 µM. Besides, the TGI in experiment [1], in experiment [2], in [3], in [4], in experiment [5] and in [6] was over 100 µM each time. This compound also showed a TGI in [7] of over 100 µM.
With `Cc1cc(N(CCC#N)S(=O)(=O)c2ccccc2)ccc1/C=C1N=C(/C=C/c2ccccc2)OC\1=O`, the TGI in experiment [1], in experiment [2], in experiment [3], in experiment [4], in experiment [5] and in [6] was over 100 µM each time. The TGI in experiment [7] was over 100 µM.
`CC1=NCCc2c1[nH]c1cc(O)ccc21`: the total growth inhibition concentration (TGI) in [1], in experiment [2], in [3], in experiment [4], in [5] and in experiment [6] was over 100 µM each time. Also, the TGI in experiment [7] is over 100 µM.
As to `O=c1c2c([nH]c3cc4c(cc13)OCO4)-c1ccccc1CC2`, the TGI in [1], in experiment [2], in experiment [3], in experiment [4], in experiment [5] and in experiment [6] was over 100 µM each time. Further, the TGI in [7] is over 100 µM.
In the case of `COc1ccccc1NC(=O)C1=C(C)NC(C)=C(C(=O)Nc2ccccc2OC)C1c1ccccc1F`, the TGI in experiment [1], in experiment [2], in experiment [3], in experiment [4], in experiment [5] and in experiment [6] was over 100 µM in each case. Further, the TGI in [7] was over 100 µM.
As to `COC(=O)c1csnn1`, the TGI in [1], in [2], in [3], in experiment [4], in experiment [5] and in experiment [6] was over 100 µM in each case.
In the case of `CCCc1[nH]nc(CCC(=O)N(Cc2ccccc2)Cc2ccccc2)c1CC`, the TGI in [1], in experiment [3], in experiment [4], in [5], in [6] and in experiment [7] was over 100 µM in each case.
Take `CNC(=O)OCc1nc(SC2CCCCO2)n(C)c1COC(=O)NC` (centres undefined): the TGI in experiment [1], in [2], in experiment [3], in experiment [4], in [5] and in experiment [6] was over 100 µM each time. Further, the TGI in [7] and in experiment [9] was over 100 µM each time.
For the compound `Cc1ccncc1.[O]=[Ge].[O]=[Ge].[O]=[Ge].[O]=[Ge].[O]=[Ge].[O]=[Ge][OH].[O]=[Ge][OH]`, the GI50 in experiment [1], in experiment [2], in experiment [3], in experiment [4], in experiment [5] and in experiment [6] was over 100 µM each time. Also, the GI50 in experiment [7] was over 100 µM. The TGI in experiment [1], in experiment [2], in experiment [3], in [4], in experiment [5] and in [6] was over 100 µM in each case. This compound came in with a TGI in experiment [7] of over 100 µM.
As to `COc1cccc(NC(=O)CC(=O)N2N=C(N(CCC#N)c3ccc(Cl)cc3)CC2c2ccccc2)c1` (centres undefined), the TGI in experiment [1], in [2], in experiment [3], in [4], in experiment [5] and in experiment [6] was over 100 µM throughout. In experiment [7], this compound came in with a TGI of over 100 µM.
Regarding `COc1nc(NC2OCC(OC(C)=O)C(OC(C)=O)C2OC(C)=O)c(N=CC=Nc2c(NC3OCC(OC(C)=O)C(OC(C)=O)C3OC(C)=O)nc(OC)n(C)c2=O)c(=O)n1C` (centres undefined), the TGI in [1], in [2], in experiment [3], in [4], in experiment [5] and in experiment [6] was over 100 µM in each case. The compound further had a TGI in experiment [7] of over 100 µM.
`CC1CCCCc2nc3c(c(=O)n21)CCCC3` (centres undefined): the TGI in experiment [1], in experiment [2], in experiment [4], in [5] and in experiment [6] was over 100 µM in each case.
For the compound `CCCCCCCCCCCCOC(=S)NCCCC`, the TGI came to 40.6 µM in experiment [1]; 35 µM in experiment [2]; 34.2 µM in [3]; 45.2 µM in experiment [4]; 53.2 µM in [5]; 73.4 µM in [6]. Further, in experiment [7], the TGI amounted to 43.1 µM.
As to `CC(C)C(=O)Nc1nc2nc[nH]c2c(=O)[nH]1`, the TGI in experiment [1], in [2], in experiment [3], in [4], in experiment [5] and in experiment [6] was over 100 µM each time. Further, the TGI in [7] was over 100 µM.
Turning to `C[N+](C)(C)CC(=O)N/N=C(/Cc1nc2c3c(ccc2[nH]c1=O)C(=O)c1ccccc1C3=O)C(=O)Nc1ccc(Cl)c(Cl)c1`, the TGI in [1], in [2], in experiment [3], in experiment [4], in [5] and in [6] was over 100 µM in each case. In addition, the TGI in [7] was over 100 µM.
Turning to `COc1ccccc1NC(=O)CC(=O)N1N=C(C)C(N=Nc2ccc(S(N)(=O)=O)cc2)C1=O` (centres undefined), the TGI in experiment [1], in [2], in experiment [3], in experiment [4], in experiment [5] and in [6] was over 100 µM throughout. This compound yielded a TGI in experiment [7] of over 100 µM.
Take `COC(=O)CCC1CCc2c(OC)ccc(O)c2C1=O` (centres undefined): the TGI in experiment [1], in experiment [2], in [3], in experiment [4], in [5] and in experiment [6] was over 100 µM each time. Moreover, in experiment [7], the TGI is over 100 µM.
`COC(=O)CCC(NC(=S)N/N=C(\C)c1nccs1)C(=O)OC` (centres undefined): the TGI in experiment [1], in experiment [2], in [3], in experiment [4], in [5] and in experiment [6] was over 100 µM throughout. This compound returned a TGI in experiment [7] of over 100 µM.
In the case of `COc1ccc2c(c1)C(O)(C(F)(F)F)c1cc(C(=O)C(F)(F)F)c3ccccc3c1N2` (centres undefined), the TGI in [1] was 15.4 µM; in [5], 22.3 µM; in experiment [7], 27.4 µM.
As for `COc1cc(/C=C2\C(=O)N(C(=O)Cc3ccccc3)N=C2C)ccc1O`, the TGI in experiment [2], in experiment [3], in experiment [4] and in experiment [6] was over 100 µM each time.
Regarding `N#CC(C(=O)/C(=N/NC(=O)c1ccccc1O)C(C#N)c1ccc(Cl)cc1)c1ccc(Cl)cc1` (centres undefined), the TGI was found to be 40.2 µM in [2]; 53 µM in experiment [3]; 26.4 µM in experiment [4]; 29.7 µM in [5]; 38.7 µM in [6]; 25.5 µM in experiment [7].
For the compound `CCOC(=O)C1=C(C)N(Cc2ccccc2)C(C)=C(C(=O)OCC)C1c1ccccc1O`, the TGI is 50.2 µM in experiment [1]; over 100 µM in [2]; over 100 µM in experiment [4]; over 100 µM in experiment [5]; 99.2 µM in [6]; 91.4 µM in experiment [7].
Regarding `Cc1ccc(C(=O)O/N=C2/CCC/C2=C\c2ccccc2)cc1`, the TGI in experiment [1], in [2], in experiment [3], in experiment [4], in experiment [5] and in [6] was over 100 µM throughout. Also, the TGI in experiment [7] is over 100 µM.
For the compound `C=C1C(=O)O[C@H]2[C@H]1[C@H](OC(=O)/C(C)=C\C)CC(=C)[C@@H]1[C@H](O)[C@H]3O[C@@]3(C)[C@@]12O`, the TGI in experiment [1], in experiment [2], in experiment [3], in experiment [4], in [5] and in [6] was over 100 µM throughout.
With `O=C(O)c1ccc([Se][Se]c2ccc(C(=O)O)cc2)cc1`, the TGI was 33.4 µM in [1]; 34.5 µM in [2]; 91.7 µM in experiment [3]; over 100 µM in experiment [4]; 54.9 µM in [5].

These data come from PubChem BioAssay (NCI).
